The values below come from patent US11530229B2, “Cyano cyclobutyl compounds for CBL-B inhibition and uses thereof” (Nurix Therapeutics, Inc., priority 2019, dated 2022).

Where two headings read alike, the source gives them in different places.

The test system of test [1] is primary human total T-cells. Put plainly: T-cell activation, IL-2 secretion, Biological Example 2. It is filed as cell-based. As to conditions: 48 hours, fold change over baseline; for fold induction at 0.3 µM: 0.3 μM inhibitor; for fold induction at 1 µM: 1 μM inhibitor; for fold induction at 3 µM: 3 μM inhibitor.
Test [2] addresses Cbl-b (Homo sapiens (Human), UniProt Q13191). Put plainly: Cbl-b displacement assay (Cbl-b inhibition assay), Biological Example 1. It is filed as binding. The essentials: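 Avitag-biotinylated human Cbl-b (residues 36–427) at 0.5 nM ("High") or 0.125 nM ("Low") pre-incubated 1 h with compound (1% DMSO) in HEPES pH 7.5/NaCl/Triton/BSA/TCEP, RT. Then 1 h with 150 nM BODIPY FL inhibitor probe (~EC40) plus 2 nM streptavidin-Tb. TR-FRET read at 520/620 nm for probe displacement.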

Test [3] relates to primary human total T-cells. In words: T-cell activation, CD25 surface staining, Biological Example 2. In kind it is cell-based. The following applies: 48 hours, fold change over baseline; for fold induction at 0.3 µM: 0.3 μM inhibitor; for fold induction at 1 µM: 1 μM inhibitor; for fold induction at 3 µM: 3 μM inhibitor.
The mark [4] stands for this setting: anti-CD3 and anti-CD28 co-stimulation.
Setting [5] is: anti-CD3 and anti-CD28 co-stimulation, read-out: IL-2 secretion CD3/CD28 1 μM.
Setting [6] is: anti-CD3 stimulation alone, read-out: IL-2 secretion CD3 1 μM.
[7] abbreviates: 0.125 nM Cbl-b final concentration (Low), read-out: Cbl-b activity IC50 (Low).
The mark [8] stands for this setting: read-out: IC50 values in the Cbl-b inhibition assay of Biological Example 1.
The mark [9] stands for this setting: anti-CD3 and anti-CD28 co-stimulation, read-out: CD25 staining CD3/CD28 1 μM.
Setting [10] is: anti-CD3 stimulation alone, read-out: CD25 staining CD3 1 μM.

Cbl-b, sequence (Q13191 36-427): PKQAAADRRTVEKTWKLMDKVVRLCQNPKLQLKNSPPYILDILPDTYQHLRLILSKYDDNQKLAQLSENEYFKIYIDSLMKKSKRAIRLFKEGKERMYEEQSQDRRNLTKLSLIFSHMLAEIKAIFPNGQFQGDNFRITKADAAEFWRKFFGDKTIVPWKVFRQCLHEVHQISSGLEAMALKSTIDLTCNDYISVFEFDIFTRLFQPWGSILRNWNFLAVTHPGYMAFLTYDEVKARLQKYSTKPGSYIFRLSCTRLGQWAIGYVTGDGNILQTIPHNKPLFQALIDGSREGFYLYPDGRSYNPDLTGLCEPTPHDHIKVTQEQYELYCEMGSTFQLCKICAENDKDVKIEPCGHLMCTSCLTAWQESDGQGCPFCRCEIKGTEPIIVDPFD

Regarding `Cc1cc(C(=O)Nc2cccc([C@]3(Cc4nncn4C)C[C@](C)(C#N)C3)c2)nc(C2CC2)n1` [Compound 9], the fold induction at 0.3 µM in test [1] (setting [4]) is not above 15; in test [3] (setting [4]) it was not above 1.24. The fold induction at 1 µM is not above 15 in test [1] (setting [5]), less than 0.4 in test [1] (setting [6]), 1.24 to 1.39 in test [3] (setting [9]) and not above 1 in test [3] (setting [10]). Also, the fold induction at 3 µM is less than 0.4 in test [1] (anti-CD3 stimulation alone) and 1 to 1.15 in test [3] (anti-CD3 stimulation alone). The concentration for half-maximal inhibition (IC50) in test [2] (setting [7]) and in test [2] (setting [8]) was 5 to 20 nM in each case.

In the case of `Cn1cnnc1C[C@]1(c2cccc(N3Cc4c(cc(CN5CC6COC(C6)C5)cc4C(F)(F)F)C3=O)c2)C[C@H](C#N)C1` (some centres unmarked) [Compound 38, (1r,3r)-3-(3-(6-((6-oxa-3-azabicyclo[3.2.1]octan-3-yl)methyl)-1-oxo-4-(trifluoromethyl)isoindolin-2-yl)phenyl)-3-((4-methyl-4H-1,2,4-triazol-3-yl)methyl)cyclobutane-1-carbonitrile], the fold induction at 0.3 µM in test [1] (setting [4]) is not above 15; in test [3] (setting [4]) it was more than 1.39. The fold induction at 1 µM in test [1] (setting [5]) is 15 to 20; in test [1] (setting [6]), 0.4 to 0.85; in test [3] (setting [9]) it was more than 1.39; in test [3] (setting [10]), more than 1.15. Also, the fold induction at 3 µM in test [1] (anti-CD3 stimulation alone) is more than 0.85; in test [3] (anti-CD3 stimulation alone), more than 1.15. The IC50 in test [2] (setting [7]) and in test [2] (setting [8]) was 5 to 20 nM each time.

In the case of `Cn1cnnc1C[C@]1(c2cccc(N3Cc4c(cccc4C(F)(F)F)C3=O)c2)C[C@H](C#N)C1` [Compound 3, (1r,3r)-3-((4-methyl-4H-1,2,4-triazol-3-yl)methyl)-3-(3-(1-oxo-4-(trifluoromethyl)isoindolin-2-yl)phenyl)cyclobutane-1-carbonitrile], the fold induction at 0.3 µM in test [1] (setting [4]) is not above 15; in test [3] (setting [4]), not above 1.24. The fold induction at 1 µM in test [1] (setting [5]) was not above 15; in test [1] (setting [6]), less than 0.4; in test [3] (setting [9]), not above 1.24; in test [3] (setting [10]), not above 1. For the same compound, the values for the fold induction at 3 µM in test [1] (anti-CD3 stimulation alone) and in test [3] (anti-CD3 stimulation alone) were less than 0.4 and 1 to 1.15, respectively. The concentration for half-maximal inhibition (IC50) in test [2] (setting [7]) and in test [2] (setting [8]) was not below 20 nM throughout.

As to `C[C@H]1CCCN(Cc2cc3c(c(C4CC4)n2)CN(c2cccc([C@]4(Cc5nncn5C)C[C@@H](C#N)C4)c2)C3=O)C1` [Compound 40, (1r,3r)-3-(3-(4-cyclopropyl-6-(((S)-3-methylpiperidin-1-yl)methyl)-1-oxo-1,3-dihydro-2H-pyrrolo[3,4-c]pyridin-2-yl)phenyl)-3-((4-methyl-4H-1,2,4-triazol-3-yl)methyl)cyclobutane-1-carbonitrile], the fold induction at 0.3 µM was not above 15 in test [1] (setting [4]) and 1.24 to 1.39 in test [3] (setting [4]). Moreover, the fold induction at 1 µM is 15 to 20 in test [1] (setting [5]), 0.4 to 0.85 in test [1] (setting [6]), 1.24 to 1.39 in test [3] (setting [9]) and 1 to 1.15 in test [3] (setting [10]). For the same compound, the values for the fold induction at 3 µM in test [1] (anti-CD3 stimulation alone) and in test [3] (anti-CD3 stimulation alone) were more than 0.85 and not above 1, respectively. Besides, the IC50 in test [2] (setting [7]) and in test [2] (setting [8]) was 1 to 2 nM each time.

As for `CN(Cc1cc2c(c(C(F)(F)F)c1)CN(c1cccc([C@]3(Cc4nncn4C)C[C@@H](C#N)C3)c1)C2=O)C1CC(F)(F)C1` [Compound 22, (1r,3r)-3-(3-(6-(((3,3-difluorocyclobutyl)(methyl)amino)methyl)-1-oxo-4-(trifluoromethyl)isoindolin-2-yl)phenyl)-3-((4-methyl-4H-1,2,4-triazol-3-yl)methyl)cyclobutane-1-carbonitrile], the fold induction at 0.3 µM is not above 15 in test [1] (setting [4]) and more than 1.39 in test [3] (setting [4]). Besides, the fold induction at 1 µM in test [1] (setting [5]) is not above 15; in test [1] (setting [6]) it was 0.4 to 0.85; in test [3] (setting [9]), more than 1.39; in test [3] (setting [10]), 1 to 1.15. For the same compound, the fold induction at 3 µM lay within 0.4 to 0.85 in test [1] (anti-CD3 stimulation alone) and 1 to 1.15 in test [3] (anti-CD3 stimulation alone). In addition, the IC50 in test [2] (setting [7]) and in test [2] (setting [8]) was 2 to 5 nM each time.

For the compound `CC1CCN(Cc2cc3c(c(C(F)(F)F)c2)CN(c2cccc([C@]4(Cc5nncn5C)C[C@@H](C#N)C4)c2)C3=O)CC(C)O1` (some centres unmarked) [Compound 34, (1r,3r)-3-(3-(6-((2,7-dimethyl-1,4-oxazepan-4-yl)methyl)-1-oxo-4-(trifluoromethyl)isoindolin-2-yl)phenyl)-3-((4-methyl-4H-1,2,4-triazol-3-yl)methyl)cyclobutane-1-carbonitrile], the fold induction at 0.3 µM in test [1] (setting [4]) was not above 15; in test [3] (setting [4]), not above 1.24. The fold induction at 1 µM in test [1] (setting [5]) was not above 15; in test [1] (setting [6]), less than 0.4; in test [3] (setting [9]), not above 1.24; in test [3] (setting [10]) it was not above 1. In addition, the fold induction at 3 µM in test [1] (anti-CD3 stimulation alone) is 0.4 to 0.85; in test [3] (anti-CD3 stimulation alone), not above 1. For the same compound, the concentration for half-maximal inhibition (IC50) in test [2] (setting [7]) was in the range of 2 to 5 nM.

On to `Cn1cnnc1C[C@]1(c2cccc(N3Cc4c(cc(CN5CCO[C@H](C(F)(F)F)C5)cc4C(F)(F)F)C3=O)c2)C[C@H](C#N)C1` [Compound 16, (1S,3r)-3-((4-methyl-4H-1,2,4-triazol-3-yl)methyl)-3-(3-(1-oxo-4-(trifluoromethyl)-6-(((S)-2-(trifluoromethyl)morpholino)methyl)isoindolin-2-yl)phenyl)cyclobutane-1-carbonitrile], for which the fold induction at 0.3 µM in test [1] (setting [4]) is not above 15; in test [3] (setting [4]) it was 1.24 to 1.39. For the same compound, the fold induction at 1 µM in test [1] (setting [5]) is 15 to 20; in test [1] (setting [6]), 0.4 to 0.85; in test [3] (setting [9]), 1.24 to 1.39; in test [3] (setting [10]), 1 to 1.15. For the same compound, the values for the fold induction at 3 µM in test [1] (anti-CD3 stimulation alone) and in test [3] (anti-CD3 stimulation alone) were more than 0.85 and not above 1, respectively. For the same compound, the concentration for half-maximal inhibition (IC50) in test [2] (setting [7]) and in test [2] (setting [8]) was 1 to 2 nM in each case.

Turning to `Cn1cnnc1C[C@]1(c2cccc(NC(=O)c3cc(CN4CCC5(CC5)C4)cc(C4CC4)n3)c2)C[C@H](C#N)C1` [Compound 53, 4-((5-azaspiro[2.4]heptan-5-yl)methyl)-N-(3-((1r,3r)-3-cyano-1-((4-methyl-4H-1,2,4-triazol-3-yl)methyl)cyclobutyl)phenyl)-6-cyclopropylpicolinamide], the fold induction at 0.3 µM in test [1] (setting [4]) was 15 to 20; in test [3] (setting [4]) it was not above 1.24. Also, the fold induction at 1 µM in test [1] (setting [5]) is 15 to 20; in test [1] (setting [6]) it was 0.4 to 0.85; in test [3] (setting [9]), not above 1.24; in test [3] (setting [10]) it was 1 to 1.15. In addition, the fold induction at 3 µM in test [1] (anti-CD3 stimulation alone) was in the range of 0.4 to 0.85; in test [3] (anti-CD3 stimulation alone), 1 to 1.15. The IC50 in test [2] (0.5 nM Cbl-b final concentration (High), read-out: Cbl-b activity IC50 (High)) was less than 1 nM.

With `C[C@H]1CCCN(Cc2cc(C(=O)Nc3cccc([C@]4(Cc5nncn5C)C[C@@H](C#N)C4)c3)nc(C3CC3)c2)C1` [Compound 55, N-(3-((1r,3S)-3-cyano-1-((4-methyl-4H-1,2,4-triazol-3-yl)methyl)cyclobutyl)phenyl)-6-cyclopropyl-4-(((S)-3-methylpiperidin-1-yl)methyl)picolinamide], the fold induction at 0.3 µM was more than 20 in test [1] (setting [4]) and 1.24 to 1.39 in test [3] (setting [4]). Moreover, the fold induction at 1 µM in test [1] (setting [5]) was more than 20; in test [1] (setting [6]), more than 0.85; in test [3] (setting [9]), 1.24 to 1.39; in test [3] (setting [10]), not above 1. In addition, the fold induction at 3 µM was more than 0.85 in test [1] (anti-CD3 stimulation alone) and not above 1 in test [3] (anti-CD3 stimulation alone). The IC50 in test [2] (setting [7]) was less than 1 nM.

For the compound `C[C@@H]1CN(Cc2cc3c(c(C(F)(F)F)c2)CN(c2cccc([C@]4(Cc5nncn5C)C[C@](C)(C#N)C4)c2)C3=O)CCO1` [Compound 10, (1S,3s)-1-methyl-3-((4-methyl-4H-1,2,4-triazol-3-yl)methyl)-3-(3-(6-(((R)-2-methylmorpholino)methyl)-1-oxo-4-(trifluoromethyl)isoindolin-2-yl)phenyl)cyclobutane-1-carbonitrile], the figures for the fold induction at 0.3 µM in test [1] (setting [4]) and in test [3] (setting [4]) were not above 15 and not above 1.24, respectively. Further, the fold induction at 1 µM in test [1] (setting [5]) was not above 15; in test [1] (setting [6]), less than 0.4; in test [3] (setting [9]), not above 1.24; in test [3] (setting [10]) it was not above 1. Moreover, the fold induction at 3 µM in test [1] (anti-CD3 stimulation alone) was less than 0.4; in test [3] (anti-CD3 stimulation alone) it was not above 1. Also, the IC50 in test [2] (setting [7]) and in test [2] (setting [8]) was not below 20 nM throughout.

Take `COCC1CCCCN(Cc2cc3c(c(C(F)(F)F)c2)CN(c2cccc([C@]4(Cc5nncn5C)C[C@@H](C#N)C4)c2)C3=O)C1` (some centres unmarked) [Compound 45, (1r,3r)-3-(3-(6-((3-(methoxymethyl)azepan-1-yl)methyl)-1-oxo-4-(trifluoromethyl)isoindolin-2-yl)phenyl)-3-((4-methyl-4H-1,2,4-triazol-3-yl)methyl)cyclobutane-1-carbonitrile]: the fold induction at 0.3 µM in test [1] (setting [4]) is not above 15; in test [3] (setting [4]), 1.24 to 1.39. For the same compound, the fold induction at 1 µM is more than 20 in test [1] (setting [5]), 0.4 to 0.85 in test [1] (setting [6]), 1.24 to 1.39 in test [3] (setting [9]) and 1 to 1.15 in test [3] (setting [10]). In addition, the fold induction at 3 µM in test [1] (anti-CD3 stimulation alone) was more than 0.85; in test [3] (anti-CD3 stimulation alone), 1 to 1.15. In addition, the IC50 in test [2] (setting [7]) and in test [2] (setting [8]) was 2 to 5 nM in each case.

What is called IC50 is the point on the concentration scale where inhibition reaches its midpoint.
